# Measured values as given in PubChem BioAssay AID1249 (Columbia University Molecular Screening Center, 2008).
# The source made the active and inactive calls. How the calls were made is not given here.
# Assay: modifiers of cytoskeleton assembly, confirmation, imaging, high-content imaging, retest and dose response (AID 1249);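 further: compound exposure lasted 24 h before fixation; plate controls were untreated cells for no effect and reference compound treated cells for full effect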
# Settings: cell-based imaging, cytoskeleton assembly phenotype, high content; at 2 µM; hits give high values
row,Compound,inhibition
1,Cc1cc(NC(=O)NC(=O)c2cccc(OC(F)(F)C(F)F)c2)n[nH]1,-2.9% (inactive)
2,CCOC(=O)c1cnn(-c2nc3c(C)cccc3s2)c1C,-1.2% (inactive)
3,O=C(C1CCC1)N1CCc2cc(S(=O)(=O)Nc3ccc4c(c3)OCCO4)ccc21,3.8% (inactive)
4,CC1CCN(C(=O)C2c3ccccc3C(=O)N3CCc4ccccc4C23)CC1 (stereo not given),-3.8% (inactive)
5,O=c1c(-c2ccc(Br)cc2)coc2c(CN3CCOCC3)c(O)ccc12,3.1% (inactive)
6,CN1CCCCc2c1[nH]c1ccccc1c2=O,5.2% (inactive)
7,COC(=O)c1sccc1NC(=O)CCC1CCCC1,-0.4% (inactive)
8,CC(C)C(=O)N1CCN(c2nc(-c3ccccc3)c3c(c2C#N)CC(C)(C)OC3)CC1,-5.6% (inactive)
9,CCN(CC)c1ccc(C2=NNC(=O)CC2C)cc1[N+](=O)[O-] (stereo not given),-7.3% (inactive)
10,Cc1c(CCO)c(=O)n(-c2ccccc2)n1S(=O)(=O)c1ccc(Cl)cc1,-11% (inactive)
11,CCn1c(SCC(=O)Nc2cc(C)on2)nnc1-c1ccccc1,0.6% (inactive)
12,N#Cc1nc(-c2ccco2)oc1N1CCOCC1,3.4% (inactive)
13,CC(C(=O)Nc1ccc(Br)cc1C(=O)c1ccccc1)N1CCOCC1 (stereo not given),6% (inactive)
14,Cc1ccc(CC2S/C(=C(/C#N)C(=O)NCc3ccco3)N(c3ccccc3)C2=O)cc1 (stereo not given),2.8% (inactive)
15,COC(=O)Sc1nc(N2CCOCC2)c2c(c1C#N)CC(C)(C)OC2,4.8% (inactive)
16,O=S(=O)(c1ccc(Cl)c(Cl)c1)c1snnc1-c1ccccc1,5.7% (inactive)
17,Cn1c(CNc2ccccc2O)nc2ccccc21,1.8% (inactive)
18,CN(CC(=O)NCc1ccncc1)S(=O)(=O)c1ccc(F)cc1,2.2% (inactive)
19,COc1ccccc1/C=N/NC(=O)C(NC(=O)c1ccccc1)=C(C)C,5.8% (inactive)
20,Cc1ccc(NC(=O)c2oc3c(c2C)C(=O)CC(C)(C)C3)cc1,-7.9% (inactive)
21,COc1cc(CNCc2ccco2)ccc1OCc1ccccc1,-7.5% (inactive)
22,CCCc1[nH]nc2c1C(c1cccnc1)C(C#N)=C(N)O2 (stereo not given),-4.7% (inactive)
23,CCOc1ccc(C(=O)C(c2ccccc2)N2CCOCC2)cc1 (stereo not given),4.3% (inactive)
24,OCCN=C(c1ccccc1)C12CN3CN(CN(C3)C1)C2,-2.8% (inactive)
25,Cc1cc(NC(=O)CSc2nnnn2C)n(-c2ccccc2)n1,-7.2% (inactive)

row,Compound,inhibition
1,O=C(O)c1ccccc1Nc1ccccc1C(=O)O,0.6% (inactive)
2,CCOc1ccccc1N1CCN(C(=O)c2cccc(-c3ccc(O)cc3)c2)CC1,6.2% (inactive)
3,O=C1CC(N2CCN(Cc3ccc4c(c3)OCO4)CC2)C(=O)N1c1ccccc1 (stereo not given),-6.6% (inactive)
4,COc1ccc(-c2cc3ccc(OCc4nn[nH]n4)cc3oc2=O)cc1OC,2.8% (inactive)
5,COC(=O)c1sccc1NC(=O)c1ccc(Br)s1,1.8% (inactive)
6,Cc1ccc(Cl)cc1NC1=C/C(=N\S(=O)(=O)c2cccs2)c2ccccc2C1=O,-8% (inactive)
7,O=C1c2oc3ccccc3c(=O)c2C(c2cccc(F)c2)N1CCCO (stereo not given),6.3% (inactive)
8,COc1cc(NC(=O)CN2C(=O)NC(C)(CC(C)C)C2=O)cc(OC)c1 (stereo not given),1.2% (inactive)
9,C=CCNC(=O)c1c(Cl)cccc1Cl,-5.1% (inactive)
10,OC(c1ccccn1)c1c[nH]c2ccccc12 (stereo not given),14.9% (inactive)
11,O=S(=O)(c1cccc(-n2cnnn2)c1)N1CCOCC1,-4.7% (inactive)
12,CCOC(=O)c1oc2ccccc2c1NC(=O)Cc1cccs1,0.3% (inactive)
13,CCOc1ccc(-n2c(SCC(=O)Nc3ccc(OC)cc3)nc3c(c2=O)SCC3)cc1,7.9% (inactive)
14,CC1=NNC(=O)/C1=C\c1cn(-c2ccccc2)nc1-c1ccc(Cl)cc1,-11.5% (inactive)
15,O=[N+]([O-])c1ccc(/C=N/n2c(COc3ccccc3)n[nH]c2=S)cc1,-4.5% (inactive)
16,O=C(CN1CCN(c2nc(-c3ccc(F)cc3)cs2)CC1)Nc1ccc2c(c1)OCO2,-7.5% (inactive)
17,COc1ccc(Cl)c(NC(=O)Nc2c(C)n(-c3ccccc3)c(=O)n2C)c1,0.8% (inactive)
18,CNc1c([N+](=O)[O-])cnn1-c1ccc(Cl)cc1,-10.2% (inactive)
19,CN1C(=O)C2(NCCc3c2[nH]c2ccccc32)c2ccccc21 (stereo not given),-6.1% (inactive)
20,Cc1ccc(CSc2nc3ccccc3cc2C=O)cc1,-4% (inactive)
21,CCOc1cc(C(=O)OCC(=O)c2c(C)[nH]c3ccccc23)ccc1OCC(=O)N1CCOCC1,-10.4% (inactive)
22,Cc1nn(CC(=O)Nc2ccc(C(=O)N(C)C)cc2)c(=O)c2ccccc12,4.3% (inactive)
23,COc1ccc(N=c2oc3ccc(OC)cc3cc2-c2nc3ccccc3[nH]2)cc1,4.3% (inactive)
24,CCn1ccnc1C(O)c1cccc(OC)c1 (stereo not given),6.1% (inactive)
25,Cc1cc(NC(=O)C(=O)NCCN2CCN(C(=O)c3cccs3)CC2)ccc1Br,0.6% (inactive)

row,Compound,inhibition
1,COc1cc(NC(=O)c2ccc(COCC(F)(F)F)o2)cc(OC)c1OC,5.2% (inactive)
2,CCOC(=O)Cc1csc(SCC(=O)/C(C#N)=C(\C)N)n1,-9.5% (inactive)
3,Cc1ccc(C(=O)c2cc([N+](=O)[O-])ccc2N2CCOCC2)c(C)c1,3.2% (inactive)
4,COc1ccc2c(c1)CCc1c(C(=O)N3CC4(C)CC3CC(C)(C)C4)noc1-2 (stereo not given),4.4% (inactive)
5,COC(=O)C1C(=O)C2=C(CC1C)NC(=O)CC2c1cccc(C)c1 (stereo not given),-3.5% (inactive)
6,Cc1ccn2c(NC(=O)c3ccco3)c(-c3ccccc3)nc2c1,12.5% (inactive)
7,O=S(=O)(c1cccs1)N1CCN(CC(O)COc2cccc(Br)c2)CC1 (stereo not given),5.3% (inactive)
8,CSc1ccc(S(=O)(=O)Nc2ccc3c4c(cccc24)CC3)cc1,-10% (inactive)
9,Cc1ccc(C(=O)CSc2nsc(C)c2C#N)cc1,-11.1% (inactive)
10,CCCc1cc(=O)[nH]c(SCC(=O)Nc2nonc2N)n1,2.7% (inactive)
11,COc1ccccc1-c1cn(S(=O)(=O)c2ccc(C)cc2)nc1N,7.9% (inactive)
12,CCOc1ccc2[nH]c(=O)c(CN(Cc3ccccc3)C(=O)N3CCCC3)cc2c1,12.4% (inactive)
13,COC(=O)c1ccccc1NC(=O)Cn1c(-c2nonc2N)nc2ccccc21,4.2% (inactive)
14,O=C(COc1ccccc1)N1CCN(CC(O)COc2ccccc2)CC1 (stereo not given),11.3% (inactive)
15,COc1ccc(CCNc2oc(COc3ccccc3F)nc2C#N)cc1,0% (inactive)
16,CCOC(=O)c1ccc(NC(=O)Cn2nnc(-c3ccccc3)n2)cc1,1.3% (inactive)
17,O=Cc1cc2ccccc2nc1SCc1ccc(Cl)cc1,8.6% (inactive)
18,COc1ccc(-c2n[nH]c(=S)n2C2CCCCC2)cc1,5.3% (inactive)
19,COc1cc2c(cc1OC)CN(C(=O)C(C)(C)C)CC2,-1.3% (inactive)
20,Nc1nc2c3ccccc3nc(Cc3ccccc3)n2n1,3.4% (inactive)
21,CCOc1ccc(N2C(=O)CSC2c2ccncc2)cc1 (stereo not given),4.4% (inactive)
22,CCc1cccc(CC)c1N(COC)C(=O)Cn1ccccc1=N,-4.4% (inactive)
23,C=C(C)c1cccc(C(C)(C)NC(=O)Nc2ncccn2)c1,1.8% (inactive)
24,COc1ccccc1C(=O)Nc1ccc2c(c1)nc(CN1CCN(C(C)=O)CC1)n2C,5.7% (inactive)
25,Cc1cc(NC(=O)CSc2nc3ccccc3c(=O)n2C2CCCC2)no1,6.7% (inactive)

row,Compound,inhibition
1,CCOC(=O)N1CCC(NC(=O)c2ccc(CNS(=O)(=O)c3ccc(F)cc3)cc2)CC1,-3.7% (inactive)
2,CCCOC(=O)CSC1=C(C#N)C(c2ccccc2OC)C(C#N)C(=O)N1 (stereo not given),-1.7% (inactive)
3,c1ccc(-c2nnc(CSc3nncs3)o2)cc1,-7.1% (inactive)
4,C/C(=C\C(=O)c1cccnc1)Nc1ccc(C)c(C)c1,1.3% (inactive)
5,Cc1ccc(Cl)cc1N1CCN(C(c2cccnc2)c2nnnn2C2CCCCC2)CC1 (stereo not given),12.1% (inactive)
6,Cc1cc(C)cc(-n2nnnc2SCC(=O)Nc2nc(-c3ccc(Cl)cc3)cs2)c1,-9.2% (inactive)
7,CCOc1ccc2ccccc2c1/C=N/n1cncn1,1.1% (inactive)
8,COc1ccccc1N(C)S(=O)(=O)c1ccc(C(=O)NCC(C)C)cc1,2.3% (inactive)
9,N#Cc1cc2c(nc1SCC(=O)N1CCCCC1)CCCC2,2.1% (inactive)
10,CC[C@@H](C)[C@H](NC(=O)OC(C)(C)C)c1nnc(S(=O)(=O)Cc2cc(C)ccc2C)o1,-2.4% (inactive)
11,Cc1ccc(C)c(NC(=S)NC(NC(=O)Cc2cccc3ccccc23)C(Cl)(Cl)Cl)c1 (stereo not given),-16% (inactive)
12,C=CCn1c(COc2ccc(Cl)cc2)nnc1SCC(=O)N/N=C/c1cccc(O)c1,-5.9% (inactive)
13,CCCn1nc([N+](=O)[O-])c(C(C#N)c2nc3ccccc3s2)c(Cl)c1=O (stereo not given),1.3% (inactive)
14,COC(=O)c1cccc(S(=O)(=O)N(Cc2ccco2)Cc2cc3ccc(OC)cc3[nH]c2=O)c1,-3.3% (inactive)
15,COc1ccccc1OCCn1cc(C(=O)c2ccco2)c2ccccc21,3.7% (inactive)
16,Cc1ccc(-c2noc(CSc3nc(N)cc(N)n3)n2)cc1,-8.4% (inactive)
17,Cc1cccc(NC(=O)CN2NS(=O)(=O)c3ccccc3C2=O)c1,-4.6% (inactive)
18,Cc1cc(NC(=O)CSc2nc(-c3ccco3)cc(C(F)(F)F)n2)no1,-2.8% (inactive)
19,O=C(NCc1ccco1)c1ccc(CS(=O)(=O)Cc2ccc(Cl)cc2)o1,-2.2% (inactive)
20,CCC(C)[C@@H](NC(=O)OC(C)(C)C)c1nnc(S(=O)(=O)Cc2cccc(C)c2)o1 (stereo not given in full),1.2% (inactive)
21,Oc1ccc(Nc2nc3ccccc3nc2Nc2ccc(O)cc2)cc1,-1.9% (inactive)
22,CSc1nc2sc(-c3ccccc3)cc2c(=O)n1N,-0.9% (inactive)
23,COCCCNC(=O)c1cn(C)c(=O)c2cc(OC)c(OC)cc12,-7.3% (inactive)
24,O=C(O)c1c[nH]c2ccc(S(=O)(=O)N3CCOCC3)cc12,-7.4% (inactive)
25,Cc1nc(-c2cccnc2)sc1C(=O)Nc1cccc(C(F)(F)F)c1,2.2% (inactive)
